Laboratory results taken from ChEMBL document CHEMBL1201862, “PubChem BioAssay data set” (2004).
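Growth conditions: 96-well plates. Treatment: test compound, 48 hours, 5 concentrations. Analysis: linear interpolation between bracketing concentrations; unreached endpoints set to highest concentration. GI50 marks 50% less growth.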 Activity calls are given as the source filed them. Rule as the data show it: active = GI50 up to about 1.1 µM and inactive = higher.

Columns and labels:
Assay in all cases: NCI anticancer screen, dose series, 48 h
KM12 = system: KM12
OVCAR-4 = system: OVCAR-4
MOLT-4 = system: MOLT-4
Malme-3M = system: Malme-3M
RXF 393 = system: RXF 393
NCI-H522 = system: NCI-H522
SF-539 = system: SF-539
NCI-H226 = system: NCI-H226
HOP-92 = system: HOP-92
COLO 205 = system: COLO 205
UACC-257 = system: UACC-257
HOP-62 = system: HOP-62
DU-145 = system: DU-145
ACHN = system: ACHN
SK-MEL-5 = system: SK-MEL-5
MDA-N = system: MDA-N
MCF7 = system: MCF7
Hs-578T = system: Hs-578T
MDA-MB-231 = system: MDA-MB-231
OVCAR-5 = system: OVCAR-5

SMILES | GI50 (KM12) | GI50 (OVCAR-4) | GI50 (MOLT-4) | GI50 (Malme-3M) | GI50 (RXF 393) | GI50 (NCI-H522) | GI50 (SF-539) | GI50 (NCI-H226) | GI50 (HOP-92) | GI50 (COLO 205) | GI50 (UACC-257) | GI50 (HOP-62) | GI50 (DU-145) | GI50 (ACHN) | GI50 (SK-MEL-5) | GI50 (MDA-N) | GI50 (MCF7) | GI50 (Hs-578T) | GI50 (MDA-MB-231) | GI50 (OVCAR-5)
Cc1nc2c(n1-c1ccc(Br)cc1)C(=O)c1ccccc1C2=O | 6.5 µM (inactive) | 14.8 µM (inactive) | 0.989 µM (active) | 9.95 µM (inactive) | 14.8 µM (inactive) | 10.4 µM (inactive) | 7.66 µM (inactive) | 51.6 µM (inactive) | 27.2 µM (inactive) | 4.38 µM (inactive) | 19.5 µM (inactive) | 18.3 µM (inactive) | 58.2 µM (inactive) | 9.06 µM (inactive) | 12.6 µM (inactive) | 6.84 µM (inactive) | 3.62 µM (inactive) | 7.78 µM (inactive) | 0.406 µM (active) | > 100 µM (inactive)
COc1ccccc1CCN1CCN(CCCc2ccccc2)CC1 | 62.7 µM (inactive) | 89.7 µM (inactive) | 89.7 µM (inactive) | > 100 µM (inactive) | 59.8 µM (inactive) | 32.4 µM (inactive) | > 100 µM (inactive) | 72.9 µM (inactive) | 0.524 µM (active) | 28.5 µM (inactive) | 60.4 µM (inactive) | > 100 µM (inactive) | > 100 µM (inactive) | > 100 µM (inactive) | 22.1 µM (inactive) | 58.9 µM (inactive) | 79.6 µM (inactive) | > 100 µM (inactive) | > 100 µM (inactive) | > 100 µM (inactive)
Nc1cc2[nH]cnc2c(=O)[nH]1 [DEZAGUANINE] | 51.6 µM (inactive) | 20.2 µM (inactive) | 6.28 µM (inactive) | 47.6 µM (inactive) | 41.7 µM (inactive) | 14.8 µM (inactive) | 16 µM (inactive) | 77.1 µM (inactive) | 77.8 µM (inactive) | 21.9 µM (inactive) | 109 µM (inactive) | 18.3 µM (inactive) | 5.43 µM (inactive) | 8.87 µM (inactive) | 63.7 µM (inactive) | 15.5 µM (inactive) | 21.9 µM (inactive) | > 196 µM (inactive) | 49.9 µM (inactive) | 45.5 µM (inactive)
